According to patent publication US8927489B2, “Sustained release preparation of pro-insulin C-peptide” (Cebix Incorporated, priority 2005, dated 2015):

What was measured:
[1] = cited from earlier work
[2] = Subcutaneous administration of C-peptide formulations in rats: C-peptide in serum; type: in vivo, Sprague-Dawley male rats; conditions: rat, sc, 75 nmole/kg as a common aqueous solution, within 2 h, data not shown, read-out: serum concentration of C-peptide
Method: About 1 ml of each sample was transferred to a plastic syringe with a Luer-lok Tip (Becton Dickinson), which then was sealed with a Combi Stopper (Braun). Prior to administration a 23G Microlance (Becton Dickinson) was connected to the syringe. Each syringe was weighed before and after administration to the animal.
Thirty Sprague-Dawley male rats with a body weight of about 300 g were divided into 5 groups of 6 animals to test the uptake of C-peptide in the formulations outlined above. […] The serum obtained by centrifugation was collected and stored at −80° C. until analysis. Determination of C-peptide in serum was performed by an automatic immunoassay system (AutoDELFIA™ C-peptide, Perkin Elmer, Wallac Oy, Turku, Finland), with a detection limit of 0.005 nM and a precision below 5%. To fit into the calibration curve, the samples were diluted prior to analysis 100 times.

[3] = dose injected into a rat; cited from earlier work

## CC(C)C[C@H](NC(=O)[C@H](C)NC(=O)[C@H](CC(C)C)NC(=O)[C@@H]1CCCN1C(=O)[C@H](CCC(N)=O)NC(=O)[C@H](CC(C)C)NC(=O)[C@H](CO)NC(=O)CNC(=O)[C@H](C)NC(=O)CNC(=O)[C@@H]1CCCN1C(=O)CNC(=O)CNC(=O)CNC(=O)[C@H](CC(C)C)NC(=O)[C@H](CCC(=O)O)NC(=O)[C@@H](NC(=O)[C@H](CCC(N)=O)NC(=O)CNC(=O)[C@@H](NC(=O)[C@H](CCC(N)=O)NC(=O)[C@H](CC(C)C)NC(=O)[C@H](CC(=O)O)NC(=O)[C@H](CCC(=O)O)NC(=O)[C@H](C)NC(=O)[C@@H](N)CCC(=O)O)C(C)C)C(C)C)C(=O)N[C@@H](CCC(=O)O)C(=O)NCC(=O)N[C@@H](CO)C(=O)N[C@@H](CC(C)C)C(=O)N[C@@H](CCC(N)=O)C(=O)O [C-peptide, proinsulin C-peptide]
[1]
  in vivo half life circulating in blood: approximately 30 minutes
[2]
  level at time molar: < 1 nM
[3]
  time within which an injected dose has disappeared entirely from circulation: 2 to 3 h
